Test results published in publication PMC11811597, “Phenomics‐Based Discovery of Novel Orthosteric Choline Kinase Inhibitors” (Angewandte Chemie (International Ed. in English), 2025).

Experiments:
Test in all cases: Competitive affinity-based chemoproteomics (UNC0965 matrix), PBMC cell extract
Type in all cases: binding
CPSF6 = molecular target: T1, CPSF6 (Homo sapiens, UniProt Q16630); conditions: 20 µM competitor, n=2
T1 construct: endogenous in cells; host or cells: PBMC from healthy blood donors, cell extract
T1 sequence (Q16630 whole entry): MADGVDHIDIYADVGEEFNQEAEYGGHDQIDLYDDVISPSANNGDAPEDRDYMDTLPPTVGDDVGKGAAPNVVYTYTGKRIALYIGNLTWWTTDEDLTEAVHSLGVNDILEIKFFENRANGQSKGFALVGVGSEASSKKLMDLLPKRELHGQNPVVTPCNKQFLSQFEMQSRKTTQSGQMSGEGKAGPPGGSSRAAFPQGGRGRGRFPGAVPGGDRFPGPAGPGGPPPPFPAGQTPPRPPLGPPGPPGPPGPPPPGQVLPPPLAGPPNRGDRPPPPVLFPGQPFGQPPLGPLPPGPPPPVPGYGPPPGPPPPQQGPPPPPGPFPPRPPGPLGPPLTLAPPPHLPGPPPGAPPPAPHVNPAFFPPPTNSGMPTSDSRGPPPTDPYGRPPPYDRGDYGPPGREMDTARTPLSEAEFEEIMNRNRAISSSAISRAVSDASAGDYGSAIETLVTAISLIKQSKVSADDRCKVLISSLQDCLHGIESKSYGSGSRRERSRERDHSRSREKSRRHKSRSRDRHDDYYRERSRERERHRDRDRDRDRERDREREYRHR
Description: (§1) described.[2] Lysates were precleared with bead slurry (100 μL) for 30 min at 4 °C and then treated with UNC0638 or UNC0737 (20 μM) or DMSO control for 30 min at 4 °C followed by incubation with affinity matrix for 2 h at 4 °C. Affinity matrices were washed with buffer A (5 mL) and proteins eluted with 100 μL of 2x Laemmli sample buffer, 100 mM DTT, in PBS and heating for 10 min at 90 °C.
(§2) Eluents (70 µL) were diluted in 0.1 M Tris (pH 7.8) to 200 µL, reduced with 5 mM DTT for 30 min at RT, and alkylated with 20 mM iodoacetamide for 30 min at RT in the dark. Proteins were precipitated by sequential addition of MeOH (600 µL), CHCl3 (150 µL) and H2O (450 µL), pelleted (17,000 × g, 5 min), washed with further MeOH (2 × 600 µL), and re-pelleted. Air dried pellets were resuspended in 50 μL 6 M urea (pH 7.8) by vortexing and then diluted with 250 μL H2O before adding 1 µg trypsin for overnight incubation at 37 °C. The digests were acidified with FA (1% v/v final concentration), desalted using SOLA HRP SPE Cartridges (Thermo Fisher), eluted with 69% v/v MeCN, 0.1% v/v FA in H2O (600 μL) and dried in vacuo. Dried peptides were stored at -20 °C before resuspension in 2% v/v MeCN, 0.1% v/v FA in H2O (20 μL) for LC-MS/MS analysis.
(§3) LC-MS/MS Data Acquisition
(§4) Digested samples were analysed by nano-UPLC–MS/MS using a Dionex Ultimate 3000 nano UPLC fitted with an EASY spray column (75 μm × 500 mm, 2 μm particle size, Thermo Scientific), coupled to an Orbitrap Q Exactive instrument. A 60 min gradient of 0.1% (v/v) formic acid in 5 % (v/v) DMSO to 0.1% (v/v) formic acid with 35% (v/v) acetonitrile in 5 % (v/v) DMSO at a flow rate of 250 nL min−1 was used. The instrument was operated in a data-dependant mode, with survey scans acquired at a resolution of 70,000 at 200 m/z and the 15 most abundant precursors selected for HCD fragmentation with an AGC target of […] ions.
(§5) Raw data was processed using MaxQuant[3] version 2.0.1.0 and the reference complete human proteome FASTA file (UniProt, downloaded 05.08.21). Label Free Quantification (LFQ) and Match Between Runs were selected; Cysteine carbamidomethylation was selected as a fixed modification, and methionine oxidation and asparagine deamidation as variable modifications. Default settings for identification and quantification were used. Specifically, a minimum peptide length of 7, a maximum of 2 missed cleavage sites, and a maximum of 5 labelled amino acids per peptide were allowed.
(§6) Through selection of the ‘trypsin/P’ general setting, peptide bond cleavage at arginine or lysine (followed by any amino acid) was considered during in silico digest of the reference proteome. The allowed precursor and fragment ion mass tolerances were 4.5 ppm and 20 ppm, respectively. Peptides and proteins were identified utilizing a 0.01 false discovery rate, with “unique and razor peptides” […]
(§7) mode selected for both identification and quantification of proteins (razor peptides are uniquely assigned to protein groups and not to individual proteins).

EHMT1 = molecular target: T2, EHMT1 (Homo sapiens, UniProt Q9H9B1); conditions: 20 µM competitor; for FC vs DMSO (log2 competition), EHMT1: n=2
T2 construct: endogenous in cells; host or cells: PBMC from healthy blood donors, cell extract
T2 sequence (Q9H9B1 1-1298): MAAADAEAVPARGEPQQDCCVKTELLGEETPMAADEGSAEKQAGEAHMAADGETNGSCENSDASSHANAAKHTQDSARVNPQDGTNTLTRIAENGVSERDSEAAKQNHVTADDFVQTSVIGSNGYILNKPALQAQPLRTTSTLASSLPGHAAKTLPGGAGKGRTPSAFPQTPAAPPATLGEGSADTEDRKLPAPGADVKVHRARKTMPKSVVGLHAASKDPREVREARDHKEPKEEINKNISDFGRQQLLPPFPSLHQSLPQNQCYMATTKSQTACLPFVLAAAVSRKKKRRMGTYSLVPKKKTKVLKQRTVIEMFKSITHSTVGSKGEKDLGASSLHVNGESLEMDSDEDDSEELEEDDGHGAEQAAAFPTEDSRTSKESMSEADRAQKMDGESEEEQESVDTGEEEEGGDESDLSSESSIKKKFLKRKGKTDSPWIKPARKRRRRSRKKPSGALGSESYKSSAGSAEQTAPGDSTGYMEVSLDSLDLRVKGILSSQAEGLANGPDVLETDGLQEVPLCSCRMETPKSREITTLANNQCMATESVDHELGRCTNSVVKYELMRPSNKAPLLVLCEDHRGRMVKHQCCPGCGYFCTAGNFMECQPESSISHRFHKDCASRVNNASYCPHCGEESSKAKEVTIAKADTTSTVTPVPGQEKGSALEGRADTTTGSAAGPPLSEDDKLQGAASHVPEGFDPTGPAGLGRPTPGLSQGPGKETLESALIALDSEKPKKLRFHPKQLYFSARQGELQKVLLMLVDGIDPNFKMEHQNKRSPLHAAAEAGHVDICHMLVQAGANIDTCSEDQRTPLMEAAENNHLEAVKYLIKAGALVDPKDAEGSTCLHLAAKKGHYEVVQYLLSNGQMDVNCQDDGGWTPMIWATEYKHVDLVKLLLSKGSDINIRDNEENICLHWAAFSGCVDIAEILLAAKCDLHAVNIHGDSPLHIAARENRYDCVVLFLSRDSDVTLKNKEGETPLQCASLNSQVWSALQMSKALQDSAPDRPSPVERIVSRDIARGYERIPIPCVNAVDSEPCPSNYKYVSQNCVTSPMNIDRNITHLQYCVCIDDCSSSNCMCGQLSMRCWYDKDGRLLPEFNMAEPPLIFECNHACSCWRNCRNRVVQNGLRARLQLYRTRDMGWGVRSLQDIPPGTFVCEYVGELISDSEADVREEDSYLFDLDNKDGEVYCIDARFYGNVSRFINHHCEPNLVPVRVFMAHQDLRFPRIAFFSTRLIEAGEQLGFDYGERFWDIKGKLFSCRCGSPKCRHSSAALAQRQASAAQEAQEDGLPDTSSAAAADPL
Description: as §1, §2, §3, §4, §5, §6, §7

JUP = molecular target: T3, JUP (Homo sapiens, UniProt P14923); conditions: 20 µM competitor, n=2
T3 construct: endogenous in cells; host or cells: PBMC from healthy blood donors, cell extract
T3 sequence (P14923 whole entry): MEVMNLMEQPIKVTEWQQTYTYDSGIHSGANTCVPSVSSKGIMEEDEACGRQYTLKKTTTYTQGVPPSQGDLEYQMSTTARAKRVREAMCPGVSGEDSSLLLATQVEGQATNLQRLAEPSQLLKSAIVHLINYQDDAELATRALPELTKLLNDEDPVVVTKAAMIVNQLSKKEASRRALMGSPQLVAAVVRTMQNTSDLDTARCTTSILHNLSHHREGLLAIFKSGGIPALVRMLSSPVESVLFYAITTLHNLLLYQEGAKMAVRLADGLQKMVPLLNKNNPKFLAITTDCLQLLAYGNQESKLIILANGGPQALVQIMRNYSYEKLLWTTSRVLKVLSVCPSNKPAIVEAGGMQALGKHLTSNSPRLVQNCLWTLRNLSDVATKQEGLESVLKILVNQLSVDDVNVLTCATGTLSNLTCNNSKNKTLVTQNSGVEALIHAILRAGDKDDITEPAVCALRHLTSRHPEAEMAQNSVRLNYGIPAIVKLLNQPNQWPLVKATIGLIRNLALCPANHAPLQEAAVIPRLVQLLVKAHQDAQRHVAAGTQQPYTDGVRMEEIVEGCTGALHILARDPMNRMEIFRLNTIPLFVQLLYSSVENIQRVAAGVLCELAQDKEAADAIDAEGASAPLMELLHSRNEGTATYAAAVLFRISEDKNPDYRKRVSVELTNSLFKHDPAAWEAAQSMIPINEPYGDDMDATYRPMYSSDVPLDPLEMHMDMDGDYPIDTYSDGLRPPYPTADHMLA
Description: as §1, §2, §3, §4, §5, §6, §7

Structure (SMILES) | FC vs DMSO (log2 competition), CPSF6 (CPSF6) | EHMT1 (GLP) binding to the matrix (EHMT1) | FC vs DMSO (log2 competition), EHMT1 (EHMT1) | FC vs DMSO (log2 competition), JUP (JUP)
COc1cc2c(NC3CCN(C(C)C)CC3)nc(C3CCCCC3)nc2cc1OCCCN1CCCC1 [UNC0638] | -1.787 | reduced binding to the matrix | -2.05 | -1.79
COc1cc2c(N(C)C3CCN(C(C)C)CC3)nc(C3CCCCC3)nc2cc1OCCCN1CCCC1 [UNC0737] | -0.1868 |  | 0.1524 | -0.7174
